The supplement of paper PMC10307832

What was measured:
Assay in all cases: relative viability (nuclei count vs DMSO), 5 days (fraction); higher = more cells survive
Seliciclib + Foretinib = compound: CC[C@H](CO)Nc1nc(NCc2ccccc2)c2ncn(C(C)C)c2n1 [Seliciclib] + COc1cc2c(Oc3ccc(NC(=O)C4(C(=O)Nc5ccc(F)cc5)CC4)cc3F)ccnc2cc1OCCCN1CCOCC1 [Foretinib] (partner 0.25 µM)
Outline: (§1)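 Five library-drug doses in √10 steps were combined with a fixed anchor-drug dose, or a single drug was given alone, by pin tool to lung cancer cell lines in 1536-well plates the day after seeding. Nuclei were stained and counted after 5 days. Relative viability is the nuclei count in treated wells over that in vehicle wells, taken as the median of duplicate plates.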

Seliciclib + Alpelisib = compound: CC[C@H](CO)Nc1nc(NCc2ccccc2)c2ncn(C(C)C)c2n1 [Seliciclib] + Cc1nc(NC(=O)N2CCC[C@H]2C(N)=O)sc1-c1ccnc(C(C)(C)C(F)(F)F)c1 [Alpelisib] (partner 2 µM)
Outline: as §1

Seliciclib + Pemetrexed = compound: CC[C@H](CO)Nc1nc(NCc2ccccc2)c2ncn(C(C)C)c2n1 [Seliciclib] + Nc1nc2[nH]cc(CCc3ccc(C(=O)N[C@@H](CCC(=O)O)C(=O)O)cc3)c2c(=O)[nH]1 [Pemetrexed] (partner 0.2 µM)
Outline: as §1

Seliciclib + Olaparib = compound: CC[C@H](CO)Nc1nc(NCc2ccccc2)c2ncn(C(C)C)c2n1 [Seliciclib] + O=C(c1cc(Cc2n[nH]c(=O)c3ccccc23)ccc1F)N1CCN(C(=O)C2CC2)CC1 [Olaparib] (partner 8 µM)
Outline: as §1

| Cell Line | relative viability (Seliciclib + Foretinib; first compound 0.08 µM) | relative viability (Seliciclib + Foretinib; first compound 0.253 µM) | relative viability (Seliciclib + Foretinib; first compound 0.8 µM) | relative viability (Seliciclib + Foretinib; first compound 2.53 µM) | relative viability (Seliciclib + Foretinib; first compound 8 µM) | relative viability (Seliciclib + Alpelisib; first compound 0.08 µM) | relative viability (Seliciclib + Alpelisib; first compound 0.253 µM) | relative viability (Seliciclib + Alpelisib; first compound 0.8 µM) | relative viability (Seliciclib + Alpelisib; first compound 2.53 µM) | relative viability (Seliciclib + Alpelisib; first compound 8 µM) | relative viability (Seliciclib + Pemetrexed; first compound 0.08 µM) | relative viability (Seliciclib + Pemetrexed; first compound 0.253 µM) | relative viability (Seliciclib + Pemetrexed; first compound 0.8 µM) | relative viability (Seliciclib + Pemetrexed; first compound 2.53 µM) | relative viability (Seliciclib + Pemetrexed; first compound 8 µM) | relative viability (Seliciclib + Olaparib; first compound 0.08 µM) | relative viability (Seliciclib + Olaparib; first compound 0.253 µM) | relative viability (Seliciclib + Olaparib; first compound 0.8 µM) | relative viability (Seliciclib + Olaparib; first compound 2.53 µM) | relative viability (Seliciclib + Olaparib; first compound 8 µM) |
| --- | --- | --- | --- | --- | --- | --- | --- | --- | --- | --- | --- | --- | --- | --- | --- | --- | --- | --- | --- | --- |
| NCI-H1793 | 0.706 | 0.6 | 0.654 | 0.712 | 0.456 | 0.641 | 0.68 | 0.508 | 0.708 | 0.742 | 0.842 | 0.741 | 0.77 | 0.857 | 0.912 | 0.942 | 0.655 | 0.834 | 1.09 | 0.761 |
| LCLC-103H | 0.812 | 0.878 | 0.708 | 0.739 | 0.589 | 0.992 | 0.957 | 0.869 | 1.05 | 0.906 | 0.377 | 0.439 | 0.514 | 0.456 | 0.494 | 0.671 | 0.81 | 0.748 | 0.774 | 0.704 |
| NCI-H441 | 0.791 | 0.86 | 0.969 | 0.93 | 0.623 | 0.631 | 0.584 | 0.776 | 0.754 | 0.51 | 0.232 | 0.246 | 0.228 | 0.249 | 0.276 | 0.525 | 0.451 | 0.562 | 0.466 | 0.448 |
| SK-LU-1 | 0.832 | 0.785 | 0.83 | 0.914 | 0.654 | 1 | 1.05 | 1.04 | 0.795 | 0.636 | 0.992 | 1.08 | 1.04 | 0.952 | 0.597 | 0.411 | 0.543 | 0.478 | 0.404 | 0.34 |
| BEN | 0.615 | 0.576 | 0.746 | 0.621 | 0.592 | 1.13 |  | 0.844 | 1.12 | 0.862 | 0.805 | 0.676 | 0.67 | 0.611 | 0.63 | 0.898 | 1.01 | 1.16 | 1.01 | 0.815 |
| LC-2-ad | 0.949 | 0.966 | 0.865 | 0.747 | 0.852 | 0.852 | 0.852 | 0.4 | 0.899 | 0.635 | 0.264 | 0.25 | 0.285 | 0.279 | 0.248 | 0.64 | 0.759 | 0.681 | 0.794 | 0.638 |
| COR-L23 | 0.928 | 1.22 | 0.981 | 0.99 | 0.738 | 0.708 | 0.868 | 0.764 | 0.78 | 0.538 | 0.209 | 0.192 | 0.195 | 0.198 | 0.212 | 0.302 | 0.451 | 0.345 | 0.364 | 0.297 |
| RERF-LC-KJ | 0.828 | 0.748 | 0.83 | 0.922 | 0.803 | 0.745 | 0.761 | 0.814 | 0.973 | 0.792 | 0.474 | 0.54 | 0.488 | 0.471 | 0.441 | 0.963 | 0.883 | 0.937 | 0.823 | 0.708 |
| SK-MES-1 | 0.891 | 0.889 | 0.771 | 0.903 | 0.862 | 0.811 | 0.85 | 0.846 | 0.873 | 0.948 | 1 | 1.17 | 0.932 | 0.862 | 0.708 | 0.764 | 0.726 | 0.647 | 0.564 | 0.342 |
| NCI-H1915 | 1.09 | 1.15 | 1.05 | 1.09 | 0.815 | 1.05 | 1.1 | 1.04 | 1.04 | 0.875 | 0.483 | 0.483 | 0.492 | 0.604 | 0.514 | 0.27 | 0.287 | 0.273 | 0.227 | 0.196 |
| NCI-H596 | 0.849 |  | 0.843 | 0.68 | 0.65 | 0.522 | 0.428 | 0.498 | 0.506 | 0.468 | 0.484 |  | 0.534 | 0.557 | 0.51 | 0.724 |  | 0.695 | 0.781 | 0.764 |
| NCI-H2009 | 1.21 | 1.24 | 1.22 | 1.18 | 1.27 | 1.14 | 1.31 | 1.15 | 1.14 | 1.23 | 1.08 | 1.17 | 1.03 | 0.981 | 1.02 | 0.734 | 0.576 | 0.724 | 0.64 | 0.706 |
| NCI-H2126 | 1.11 | 1.21 | 1.07 | 0.968 | 0.943 | 0.681 | 0.698 | 0.753 | 0.749 | 0.673 | 0.631 | 0.683 | 0.682 | 0.515 | 0.542 | 0.886 | 0.953 | 0.888 | 0.908 | 0.745 |
| LXF-289 | 0.95 | 1.16 | 0.973 | 0.943 | 0.86 | 1.01 | 1.09 | 1.02 | 1.02 | 0.891 | 0.883 | 1.04 | 0.81 | 0.932 | 0.842 | 1.06 | 1.12 | 1.03 | 1.04 | 0.772 |
| NCI-H358 | 0.684 | 0.597 | 0.752 | 0.665 | 0.457 | 0.789 | 0.887 | 0.913 | 0.741 | 0.444 | 0.17 | 0.178 | 0.167 | 0.159 | 0.169 | 0.588 | 0.595 | 0.546 | 0.561 | 0.346 |
| PC-14 | 0.884 | 0.971 | 0.902 | 0.997 | 0.843 | 0.86 | 0.871 | 0.878 | 0.909 | 0.854 | 0.125 | 0.147 | 0.166 | 0.143 | 0.122 | 0.286 | 0.285 | 0.29 | 0.343 | 0.266 |
| HOP-62 | 1.17 | 1.18 | 1.1 | 1.17 | 0.993 | 1.03 | 0.811 | 0.942 | 1.05 | 0.829 | 0.285 | 0.326 | 0.383 | 0.339 | 0.351 | 0.445 | 0.398 | 0.299 | 0.264 | 0.391 |
| NCI-H1944 | 0.881 | 0.866 | 0.829 | 0.9 | 0.554 | 0.813 | 0.859 | 0.77 | 0.904 | 0.666 | 0.575 | 0.634 | 0.453 | 0.608 | 0.428 | 0.377 | 0.394 | 0.348 | 0.425 | 0.392 |
| NCI-H2170 | 0.936 | 0.934 | 1.01 | 1.09 | 0.968 | 0.801 | 0.585 | 0.824 | 0.904 | 0.834 | 0.269 |  | 0.262 | 0.268 | 0.26 | 0.521 |  | 0.582 | 0.654 | 0.609 |
| NCI-H1666 | 0.97 | 1.04 | 0.987 | 1 | 0.662 | 1.04 | 0.985 | 0.846 | 0.923 | 0.516 | 0.918 | 0.959 | 0.824 | 0.821 | 0.815 | 0.737 | 0.82 | 0.725 | 0.752 | 0.604 |
| NCI-H1355 | 0.95 | 0.976 | 0.706 | 1.03 | 0.93 | 0.784 | 0.754 | 0.822 | 0.919 | 0.831 | 0.945 | 0.922 | 1.02 | 1.02 | 0.962 | 0.715 | 0.697 | 0.727 | 0.779 | 0.635 |
| HCC-827 | 1.01 | 1.04 | 0.968 | 0.972 | 0.925 | 1.01 | 1.01 | 1 | 1.04 | 0.784 | 0.251 | 0.241 | 0.258 | 0.297 | 0.258 | 0.623 | 0.66 | 0.644 | 0.612 | 0.624 |
| HARA | 0.95 | 1.06 | 0.943 | 0.982 | 0.714 | 0.892 | 0.911 | 0.747 | 0.855 | 0.776 | 0.238 | 0.28 | 0.244 | 0.227 | 0.21 | 1.05 | 0.66 | 0.784 | 0.909 | 0.924 |
| HCC-366 | 0.917 | 0.97 | 0.786 | 0.93 | 0.762 | 0.367 | 0.302 | 0.342 | 0.344 | 0.371 | 0.153 | 0.327 | 0.212 | 0.295 | 0.241 | 0.335 | 0.422 | 0.35 | 0.456 | 0.234 |
| NCI-H322M | 1 | 1.23 | 0.907 | 0.865 | 0.752 | 0.87 | 0.876 | 0.692 | 0.822 | 0.73 | 0.615 | 0.716 | 0.564 | 0.636 | 0.619 | 0.722 | 0.969 | 0.561 | 0.758 | 0.749 |
| NCI-H2347 | 1.18 | 1.23 | 0.938 |  | 0.738 | 1.05 | 1.04 | 0.757 | 1.03 | 0.805 | 0.409 | 0.454 | 0.419 | 0.437 | 0.42 | 0.557 | 0.604 | 0.518 | 0.579 | 0.557 |
| NCI-H1975 | 1 | 0.977 | 0.894 | 0.932 | 0.748 | 0.653 | 0.526 | 0.602 | 0.621 | 0.445 | 0.274 | 0.328 | 0.281 | 0.331 | 0.267 | 0.774 | 0.605 | 0.768 | 0.865 | 0.523 |
